Where two headings read alike, the source gives them in different places.
Target: T1, HSL (Homo sapiens, UniProt Q05469)
T1 sequence (Q05469 1-1076): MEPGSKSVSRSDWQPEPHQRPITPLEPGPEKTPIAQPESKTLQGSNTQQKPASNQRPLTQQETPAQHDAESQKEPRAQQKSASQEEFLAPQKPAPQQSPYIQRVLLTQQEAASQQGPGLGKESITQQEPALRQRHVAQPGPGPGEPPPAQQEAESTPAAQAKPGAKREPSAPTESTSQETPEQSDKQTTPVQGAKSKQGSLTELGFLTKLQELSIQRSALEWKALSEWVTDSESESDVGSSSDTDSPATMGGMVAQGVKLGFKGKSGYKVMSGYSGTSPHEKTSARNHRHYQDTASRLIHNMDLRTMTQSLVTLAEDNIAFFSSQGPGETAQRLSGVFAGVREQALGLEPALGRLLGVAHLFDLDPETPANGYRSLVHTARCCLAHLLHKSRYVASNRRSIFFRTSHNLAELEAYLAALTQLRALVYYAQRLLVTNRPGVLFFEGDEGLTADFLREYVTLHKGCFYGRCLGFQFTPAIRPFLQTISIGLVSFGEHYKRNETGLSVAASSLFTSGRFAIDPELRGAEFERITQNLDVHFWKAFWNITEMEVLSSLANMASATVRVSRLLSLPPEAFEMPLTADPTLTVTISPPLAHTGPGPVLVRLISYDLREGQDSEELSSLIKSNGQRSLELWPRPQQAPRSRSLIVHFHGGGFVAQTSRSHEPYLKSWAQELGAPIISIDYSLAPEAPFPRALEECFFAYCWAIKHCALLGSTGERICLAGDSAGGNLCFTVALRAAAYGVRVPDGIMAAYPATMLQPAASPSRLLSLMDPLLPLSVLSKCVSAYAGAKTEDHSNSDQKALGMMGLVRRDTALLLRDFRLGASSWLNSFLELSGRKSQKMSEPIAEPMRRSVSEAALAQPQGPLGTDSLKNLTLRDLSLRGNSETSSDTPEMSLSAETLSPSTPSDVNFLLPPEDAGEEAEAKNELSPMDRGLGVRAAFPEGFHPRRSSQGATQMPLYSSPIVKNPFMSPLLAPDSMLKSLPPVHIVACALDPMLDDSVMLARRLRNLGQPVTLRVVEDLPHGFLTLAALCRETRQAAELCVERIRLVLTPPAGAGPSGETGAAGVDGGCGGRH
Assay: TEST 3180.2 HSL: percent inhibition at 10 μM, 3H-Triolein lipid emulsion
Type: biochemical
Conditions: for activity at 10 µM: read-out: TEST 3180.2 HSL Activity (%)

[1] = 10 μM concentration, percent activity relative to an un-inhibited sample, 30 min preincubation, 30 min reaction at 25° C.

Compound | activity at 10 µM [1] [%] | further results
3-Fluoro-4-phenylboronic acid [Example 72] |  | TEST 3180.2 HSL Activity (%) (10 µM): 97%
OB(O)c1ccc(OCc2ccccc2)cc1 [Example 33, 4-Benzyloxyphenylboronic acid] | 85 | 
CC1(C)COB(c2cc(F)cc(F)c2)OC1 [Example 35, 2-(3,5-DIFLUOROPHENYL)-5,5-DIMETHYL-1,3,2-DIOXABORINANE] | 38 | 
CC1(C)COB(c2ccc(Br)cc2)OC1 [Example 37, 2-(4-BROMOPHENYL)-5,5-DIMETHYL-1,3,2-DIOXABORINANE] | 83 | 
CC1(C)COB(c2ccccc2Cl)OC1 [Example 38, 2-(2-chloroPHENYL)-5,5-DIMETHYL-1,3,2-DIOXABORINANE] | 89 | 
CC1(C)COB(c2ccccc2C#N)OC1 [Example 39, 2-(5,5-Dimethyl-[1,3,2]dioxaborinan-2-yl)-benzonitrile] | 97 | 
CC1(C)COB(c2ccccc2F)OC1 [Example 40, 2-(2-Fluoro-phenyl)-5,5-dimethyl-[1,3,2]dioxaborinane] | 68 | 
CCOC(=O)c1ccccc1B1OCC(C)(C)CO1 [Example 42, 2-(5,5-Dimethyl-[1,3,2]dioxaborinan-2-yl)-benzoic acid ethyl ester] | 93 | 
COc1ccc(Cl)cc1B(O)O [Example 43, 5-CHLORO-2-METHOXYPHENYLBORONIC ACID] | 36 | 
OB(O)c1cc(Br)cc(Br)c1 [Example 44, 3,5-Dibromophenylboronic acid] | 71 | 
CCOc1cccc(B(O)O)c1 [Example 45, 3-Ethoxyphenylboronic acid] | 90 | 
OB(O)c1cccc(-c2ccccc2)c1 [Example 46, 3-phenylphenylboronic acid] | 96 | 
OB(O)c1ccc(F)cc1 [Example 47, 4-fluorophenylboronic acid] | 65 | 
OB(O)c1ccccc1Br [Example 48, 2-Bromophenylboronic acid] | 81 | 
OB(O)c1cccc(Br)c1 [Example 49, 3-Bromophenylboronic acid] | 33 | 
OB(O)c1c(Cl)cccc1Cl [Example 50, 2,6-Dichlorophenylboronic acid] | 88 | 
Cc1cccc(B(O)O)c1 [Example 51, 3-Methylphenylboronic acid] | 64 | 
OB(O)c1ccccc1Cl [Example 52, 2-Chlorophenylboronic acid] | 86 | 
OB(O)c1cccc(Cl)c1 [Example 53, 3-Chlorophenylboronic acid] | 34 | 
OB(O)c1cccc(OC(F)(F)F)c1 [Example 54, 3-(TRIFLUOROMETHOXY)BENZENEBORONIC ACID] | 27 | 

Compound | activity at 10 µM [1] [%] | further results
OB(O)c1cccc(C(F)(F)F)c1 [Example 55, 3-Trifluoromethylphenylboronic acid] | 21 | 
OB(O)c1cc(C(F)(F)F)cc(C(F)(F)F)c1 [Example 56, 3,5-Bis(Trifluoromethyl)phenylboronic acid] | 89 | 
OB(O)c1cc(Cl)cc(Cl)c1 [Example 57, 3,5-Dichlorophenylboronic acid] | 46 | 
OB(O)c1ccc(F)c(Cl)c1 [Example 58, 3-Chloro-4-fluorophenylboronic acid] | 35 | 
OB(O)c1cc(F)cc(F)c1 [Example 59, 3,5-Difluorophenylboronic acid] | 25 | 
OB(O)c1cccc(F)c1 [Example 60, 3-Fluorophenylboronic acid] | 47 | 
CCCCCc1ccc(B(O)O)c(F)c1F [Example 61, 2,3-DIFLUORO-4-PENTYLPHENYLBORONIC ACID] | 85 | 
OB(O)c1ccc(OCc2ccccc2)c(F)c1 [Example 62, 3-FLUORO-4-BENZYLOXYPHENYL)BORONIC ACID] |  | TEST 3180.2 HSL Activity (%) [1]: 93%
OB(O)c1cc(F)c(F)c(F)c1 [Example 63, 3,4,5-Trifluorophenylboronic acid] | 26 | 
OB(O)c1cc(Cl)cc(Cl)c1Cl [Example 64, 2,3,5-Trichlorophenylboronic acid] | 76 | 
OB(O)c1cc(Cl)ccc1Cl [Example 65, 2,5-Dichlorophenylboronic acid] | 55 | 
OB(O)c1cccc(F)c1F [Example 66, 2,3-Difluorophenylboronic acid] | 55 | 
OB(O)c1cc(F)ccc1F [Example 67, 2,5-Difluorophenylboronic acid] | 34 | 
CC(=O)Nc1ccc(B2OC(C)(C)C(C)(C)O2)cc1 [Example 68, 4′-(4,4,5,5-TETRAMETHYL-1,3,2-DIOXABOROLAN-2-YL)ACETANILIDE] | 86 | 
OB(O)c1ccc(F)c(F)c1 [Example 69, 3,4-Difluorophenylboronic acid] | 45 | 
OB(O)c1cccc(Cl)c1Cl [Example 70, 2,3-Dichlorophenylboronic acid] | 66 | 
OB(O)c1ccc(Br)c(F)c1F [Example 71, 2,3-Difluoro-4-bromophenylboronic acid] | 61 | 
COc1ccc(F)cc1B(O)O [Example 73, 2-Methoxy5-fluorophenylboronic acid] | 62 | 
COC1OC2COB(c3ccccc3)OC2C(O)C1O (stereo not shown) [Example 78, 6-Methoxy-2-phenyl-hexahydro-pyrano[3,2-a][1,3,2]dioxaborinine-7,8-diol] |  | TEST 3180.2 HSL Activity (%) [1]: 82%
CCCCCC1COB(c2ccc(C(=O)O)c(F)c2)OC1 [Example 79, 2-Fluoro-4-(5-pentyl-[1,3,2]dioxaborinan-2-yl)-benzoic acid] | 100 | 

Compound | activity at 10 µM [1] [%] | further results
Ic1cccc(OCC2COB(c3ccccc3)O2)c1 (stereo not shown) [Example 80, 4-(3-Iodo-phenoxymethyl)-2-phenyl-[1,3,2]dioxaborolane] | 80 | 
CC1(C)OB(c2ccsc2[Si](C)(C)C)OC1(C)C [Example 81, 3′-(4,4,5,5-TETRAMETHYL-1,3,2-DIOXABOROLAN-2-YL)-2-trimethylsilylthiophen] |  | TEST 3180.2 HSL Activity (%) [1]: 85%
CC1(C)OB(c2csc([N+](=O)[O-])c2)OC1(C)C [Example 82, 4′-(4,4,5,5-TETRAMETHYL-1,3,2-DIOXABOROLAN-2-YL)2-nitrothiophene] |  | TEST 3180.2 HSL Activity (%) [1]: 96%
OB(O)c1csc2ccccc12 [Example 83, 1-BENZOTHIOPHEN-3-YLBORONIC ACID] | 76 | 
O=Cc1sccc1B(O)O [Example 84, 2-FORMYL-3-THIOPHENEBORONIC ACID] | 92 | 
c1ccc2c(c1)OB(c1ccsc1)O2 [Example 85, 2-THIEN-3-YL-1,3,2-BENZODIOXABOROLE] | 89 | 
Cc1cc(B2OCCCO2)sc1C=O [Example 87, 2-(2-FORMYL-3-METHYLTHIEN-5-YL)-1,3,2-DIOXABORINANE] |  | activity at 10 µM: 75%
Cc1csc(B(O)O)c1 [Example 88, 4-METHYLTHIOPHENE-2-BORONIC ACID] | 49 | 
Cc1ccc(B(O)O)o1 [Example 89, 5-METHYLFURAN-2-BORONIC ACID] | 87 | 
Cc1ccc(B(O)O)s1 [Example 90, 5-Methylthiophene-2-boronic acid] | 48 | 
OB(O)c1cc2ccccc2o1 [Example 91, BENZO[B]FURAN-2-BORONIC ACID] | 57 | 
OB(O)c1cc2ccccc2s1 [Example 92, Benzo[B]thiophene-2-boronic acid] | 53 | 
OB(O)c1ccco1 [Example 93, Furan-2-boronic acid] | 89 | 
OB(O)c1ccc(Cl)s1 [Example 94, 5-Chlorothiophene-2-boronic acid] | 17 | 
N#Cc1ccc(B(O)O)s1 [Example 95, 5-Cyanothiophene-2-boronic acid] | 49 | 
CC(=O)c1ccc(B(O)O)s1 [Example 96, 5-Acetylthiophene-2-boronic acid] | 68 | 
OB(O)c1cccs1 [Example 97, Thiophene-2-boronic acid] | 66 | 
OB(O)c1sccc1Br [Example 98, 3-Bromothiophene-2-boronic acid] | 84 | 

From patent US7037905B2, “Pharmaceutical use of boronic acids and esters thereof” (Novo Nordisk A/S, priority 2002, dated 2006)
